From paper PMC8232644, “Self-Supporting Hydrogels Based on Fmoc-Derivatized Cationic Hexapeptides for Potential Biomedical Applications” (Biomedicines, 2021)
In brackets after ≈: the same amount, converted by molar mass. Residues, ends and D or L forms follow the SMILES beside them. *: point of attachment. Fmoc = O=C(OCC1c2ccccc2-c2ccccc21)*

Key:
[1] = Water solubility of peptides; format: physicochemical; settings: from solid: 10 mg lyophilized peptide in 1.0 mL water, sonicated 30 min at room temperature, centrifuged 5 min 13,000 rpm; UV at 301 nm (ε 7800 M^−1 cm^−1)
Description: Peptide solutions were prepared by dissolving 10 mg of each lyophilized peptide in 1.0 mL of water. These suspensions were sonicated for 30 min at room temperature; after centrifugation (5 min at 13,000 rpm), the concentration was spectroscopically determined on UV–Vis Thermo Fisher Scientific Inc. (Wilmington, DE, USA) NanoDrop 2000 c spectrophotometer equipped with a 1.0 cm quartz cuvette (Hellma). The quantification of the concentration was assessed using the molar absorptivity (ε) of 7800 M^−1 cm^−1 for Fmoc group at λ = 301 nm.
Due to their different sequence, each peptide has a different water solubility (see Table 2). […] The capability of peptides to self-assemble was initially checked by fluorescence spectroscopy, recording the emission spectra at the maximum concentration of the peptide. Peptides containing the FF motif were excited at both 257 and 301 nm, which corresponded to the excitation wavelength of phenyl and the Fmoc group, respectively, whereas peptides lacking FF were excited only at 301 nm. All the peptide derivatives, upon excitation at 301 nm, have an emission peak at 328 nm, red-shifted of 15 nm, with respect to the peak at 313 nm, which is expected for the monomeric form (see Figure S6).

[2] = In vitro hydrogel degradation in Ringer's solution; format: physicochemical; settings: hydrogel with 1.5 mL Ringer’s solution at 37 °C for 20 days (method: 40 days); ΔW = (Wo − Wt)/Wo
Description: In vitro hydrogel degradation assay was performed by adding a fixed amount (1.5 mL) of Ringer’s solution (12.9 mg of NaCl, 0.45 mg of KCl and 0.48 mg of CaCl2) to the preformed hydrogels and by placing them in an oven at 37 °C for 40 days. Hydrogels were weighed before the addition of the Ringer’s solution (Wo) and after its removal (Wt). The weight loss ratio (ΔW) was calculated as percentage according to Equation (2) ΔW = ((Wo − Wt))/Wo %(2)
As potential tissue engineering matrices, PHG materials would be directly exposed to biological fluids. According to this consideration, the degradation test was performed to evaluate the matrices stability in an in vivo mimetic environment. The biological setting was mimed, incubating the hydrogels with Ringer’s solution at 37 °C for 20 days. The stability, reported as ΔW, calculated using Equation (2), was estimated as weight loss. ΔW values determined for Fmoc-K1, Fmoc-K2, and Fmoc-K3 were 43.2, 39.7, and 41.8%, respectively. In comparison to other FmocFF peptide-based hydrogels, all tested samples undergo faster and more remarkable degradation. This behavior is probably ascribable to the less rigid nature of Fmoc-K HGs. As an alternative, it can also be hypothesized that the large amount of salt in the Ringer’s solution could improve the solubility of K peptides and, in turn, accelerate the loss of 3D-organization of the matrix. It is worth it to note that an efficient in vivo degradation by biological fluids of hydrogels in their single components could allow achieving a rapid excretion of the matrix, which means a high biocompatibility.

3T3-L1 cells [3] = format: cell-based, mouse; settings: for Cell adhesion (% of adherent viable cells on seeded cells): 16 h; for cell viability of adherent cells: 72 h
Description: (§1) Aneuploid immortal keratinocyte cell line HaCat and mouse pre-adipocyte cell line 3T3-L1 were obtained from IRCCS-SDN Biobank (10.5334/ojb.26) and grown in Dulbecco’s Modified Medium (DMEM) supplemented with 10% fetal bovine serum (FBS) and 1% GlutaMAX. Cells were incubated at 37 °C and 5% CO2 and seeded in 100 mm culture dishes.
For the adhesion test, 3T3-L1 cells were seeded in 96-well plates at a density of 0.5 ×10^4 cells per well. Before seeding, each well was filled with the indicated hydrogels; 16 h after seeding, cells were stained with Acridine Orange/Propidium Iodide stain. Cell adhesion was reported as % of adherent viable cell (fluorescing green) on total plated cells. Viability upon adhesion was reported as % viable cells and total adherent cells. Duplication rate was reported as the ratio between viable cells upon 48 h from seeding and the number of viable adherent cells upon 16 h from seeding. In order to test the toxicity of hydrogels conditioned media, we used MTS assay, (CellTiter 96® AQueous One Solution Cell Proliferation Assay, Promega, Italy). For MTS assays, HaCat and 3T3-L1 cells were seeded in 96-well plates at a density of 0.7 × 10^4 cells per well. To obtain the conditioned media, hydrogels formed in a hollow plastic chamber sealed at one end with a porous membrane, were incubated with 2 mL of completed DMEM medium for 16 h in sterile condition at RT [23]. No color change of the media was detected following the incubation and the tested pH value (7.5–7.8) was suitable for culturing added to the wells. The conditioned media were used to grow the cells for 24, 48, and 72 h. At the end of the treatment, cell viability was assessed by the MTS assay. In brief, MTS was added to the cells at a final concentration of 0.5 mg/mL. After 30 min of incubation at 37 °C, the samples were analyzed using the VICTOR Nivo (Perkin Elmer, Buckinghamshire, UK) at 490 nm absorbance. Cell survival was expressed as percentage of viable cells in the presence of hydrogels, compared to control cells grown in their absence. MTS assay was repeated twice with similar results.
To test the ability of the three hydrogels to support in vitro growth of eukaryotic cells, we culture 3T3-L1 (mouse fibroblast) cells on Fmoc-K1, K2, and K3. As first, we measured the number of cells able to adhere to hydrogels. An efficient cell adhesion is necessary for an optimal growth of the culture, and growth-supports un-favoring cell adhesion cause cell cycle arrest and induce apoptosis. […] Compared to cells plated in the absence of hydrogels, Fmoc-K1 and Fmoc-K2 disfavored cell adhesion, allowing cell attachment to 20 ± 3%, 36 ± 8% of the seeded cells, respectively.

3T3-L1 cells [4] = format: cell-based, mouse; settings: 24 h
Description: as §1
For the adhesion test, 3T3-L1 cells were seeded in 96-well plates at a density of 0.5 ×10^4 cells per well. Before seeding, each well was filled with the indicated hydrogels; 16 h after seeding, cells were stained with Acridine Orange/Propidium Iodide stain. Cell adhesion was reported as % of adherent viable cell (fluorescing green) on total plated cells. Viability upon adhesion was reported as % viable cells and total adherent cells. […] No color change of the media was detected following the incubation and the tested pH value (7.5–7.8) was suitable for culturing added to the wells. […] At the end of the treatment, cell viability was assessed by the MTS assay. […] After 30 min of incubation at 37 °C, the samples were analyzed using the VICTOR Nivo (Perkin Elmer, Buckinghamshire, UK) at 490 nm absorbance. Cell survival was expressed as percentage of viable cells in the presence of hydrogels, compared to control cells grown in their absence. […]

[5] = cited from earlier work
Excerpt: Hydrogels are matrices able to absorb water and swell in the media without dissolving. The calculated degree of swelling (q) was 55.2%, 56.6%, and 54.3% for Fmoc-K1, Fmoc-K2, and Fmoc-K3, respectively.

| Molecule | solubility thermodynamic at 30 min [1] | weight loss ratio ΔW (stability) [2] | cell death of the attached cells (3T3-L1 cells [3]) | Cell adhesion (% of adherent viable cells on seeded cells) (3T3-L1 cells [3]) | cell viability of adherent cells (3T3-L1 cells [3]) | viability (cell survival vs control) (3T3-L1 cells [4]) | swelling degree [5] |
| --- | --- | --- | --- | --- | --- | --- | --- |
| CC[C@H](C)[C@H](NC(=O)OCC1c2ccccc2-c2ccccc21)C(=O)N[C@@H](CC(C)C)C(=O)N[C@H](C(=O)N[C@@H](C)C(=O)NCC(=O)N[C@@H](CCCCN)C(N)=O)C(C)C [Fmoc-K1] (Fmoc-ILVAGK-NH2) | 1240 µg/mL (≈ 1510 µM) | 43.2% | 9 ± 3% | 20 ± 3% | 92 ± 3% | above 70% | – |
| CC[C@H](C)[C@H](NC(=O)[C@H](CC(C)C)NC(=O)OCC1c2ccccc2-c2ccccc21)C(=O)N[C@H](C(=O)N[C@@H](C)C(=O)NCC(=O)N[C@@H](CCCCN)C(N)=O)C(C)C [Fmoc-K2] (Fmoc-LIVAGK-NH2) | 2560 µg/mL (≈ 3120 µM) | 39.7% | 11 ± 2% | 36 ± 8% | 95 ± 3% | – | – |
| CC[C@H](C)[C@H](NC(=O)[C@H](C)NC(=O)OCC1c2ccccc2-c2ccccc21)C(=O)N[C@H](C(=O)N[C@@H](C)C(=O)NCC(=O)N[C@@H](CCCCN)C(N)=O)C(C)C [Fmoc-K3] (Fmoc-AIVAGK-NH2) | 3210 µg/mL (≈ 4120 µM) | 41.8% | 3 ± 1% | 85 ± 12% | 94 ± 3% | – | – |
| CC[C@H](C)[C@H](NC(=O)[C@H](Cc1ccccc1)NC(=O)[C@H](Cc1ccccc1)NC(=O)OCC1c2ccccc2-c2ccccc21)C(=O)N[C@@H](CC(C)C)C(=O)N[C@H](C(=O)N[C@@H](C)C(=O)NCC(=O)N[C@@H](CCCCN)C(N)=O)C(C)C [FmocFF-K1] (Fmoc-FFILVAGK-NH2) | 508 µg/mL (≈ 455 µM) | – | – | – | – | – | – |
| CC[C@H](C)[C@H](NC(=O)[C@H](CC(C)C)NC(=O)[C@H](Cc1ccccc1)NC(=O)[C@H](Cc1ccccc1)NC(=O)OCC1c2ccccc2-c2ccccc21)C(=O)N[C@H](C(=O)N[C@@H](C)C(=O)NCC(=O)N[C@@H](CCCCN)C(N)=O)C(C)C [FmocFF-K2] (Fmoc-FFLIVAGK-NH2) | 253 µg/mL (≈ 227 µM) | – | – | – | – | – | – |
| CC[C@H](C)[C@H](NC(=O)[C@H](C)NC(=O)[C@H](Cc1ccccc1)NC(=O)[C@H](Cc1ccccc1)NC(=O)OCC1c2ccccc2-c2ccccc21)C(=O)N[C@H](C(=O)N[C@@H](C)C(=O)NCC(=O)N[C@@H](CCCCN)C(N)=O)C(C)C [FmocFF-K3] (Fmoc-FFAIVAGK-NH2) | 345 µg/mL (≈ 321 µM) | – | – | – | – | – | – |
| Fmoc-diphenylalanine [FmocFF] | – | – | – | – | – | – | around 40% |
